Read-outs that look alike come from different tables or passages of the source.
Key:
[1] = cited from earlier work
[2] = target: T1, human OCT3 (Homo sapiens, UniProt O75751); assay: Inhibition of probe substrate uptake by OCT3 in transfected MDCK-II cells; format: in vitro ADME; settings: dolutegravir ≤10 μM; 10 µM [14C]metformin
T1 sequence (O75751 1-556): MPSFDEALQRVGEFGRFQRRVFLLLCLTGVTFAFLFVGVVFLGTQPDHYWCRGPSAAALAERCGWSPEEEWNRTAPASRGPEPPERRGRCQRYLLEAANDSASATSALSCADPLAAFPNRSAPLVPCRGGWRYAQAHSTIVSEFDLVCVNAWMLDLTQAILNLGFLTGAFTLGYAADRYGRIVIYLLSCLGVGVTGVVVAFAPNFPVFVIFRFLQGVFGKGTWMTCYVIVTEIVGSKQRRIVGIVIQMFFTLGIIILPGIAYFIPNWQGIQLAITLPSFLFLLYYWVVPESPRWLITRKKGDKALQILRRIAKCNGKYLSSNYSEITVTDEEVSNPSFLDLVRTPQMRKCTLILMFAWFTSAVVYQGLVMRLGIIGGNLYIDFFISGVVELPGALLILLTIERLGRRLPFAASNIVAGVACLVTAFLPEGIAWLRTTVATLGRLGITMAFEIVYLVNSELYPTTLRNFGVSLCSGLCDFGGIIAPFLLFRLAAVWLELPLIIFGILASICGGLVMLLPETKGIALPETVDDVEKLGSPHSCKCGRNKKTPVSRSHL

[3] = target: T2, human PMAT (Homo sapiens, UniProt Q7RTT9); assay: Inhibition of probe substrate uptake by PMAT in transfected MDCK-II cells; format: in vitro ADME; settings: dolutegravir ≤100 μM; 10 µM [14C]metformin
T2 sequence (Q7RTT9 1-530): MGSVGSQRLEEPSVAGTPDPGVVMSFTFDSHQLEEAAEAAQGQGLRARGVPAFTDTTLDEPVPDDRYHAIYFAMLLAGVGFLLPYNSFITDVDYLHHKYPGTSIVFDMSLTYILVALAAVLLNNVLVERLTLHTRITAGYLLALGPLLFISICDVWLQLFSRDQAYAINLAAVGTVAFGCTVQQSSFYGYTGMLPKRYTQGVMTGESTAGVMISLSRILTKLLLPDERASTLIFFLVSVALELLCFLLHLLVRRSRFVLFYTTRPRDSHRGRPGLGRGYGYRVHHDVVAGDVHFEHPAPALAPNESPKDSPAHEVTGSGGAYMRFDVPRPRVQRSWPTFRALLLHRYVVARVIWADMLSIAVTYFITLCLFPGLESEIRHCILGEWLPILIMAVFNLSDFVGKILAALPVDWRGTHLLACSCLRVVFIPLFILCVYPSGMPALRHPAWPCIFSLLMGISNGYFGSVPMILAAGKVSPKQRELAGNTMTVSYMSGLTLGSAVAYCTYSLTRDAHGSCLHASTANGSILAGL

[4] = tested on: OCT2; settings: cited from earlier work
[5] = tested on: Caco-2 cell monolayers; assay: Cellular uptake of [14C]metformin in Caco-2 cell monolayers; format: in vitro ADME; settings: dolutegravir 0.3-100 µM
[6] = tested on: OCT1; settings: at 10 μM; cited from earlier work
[7] = tested on: OCT2; settings: cited from earlier work; remark: listed apart in the source
[8] = format: in vivo, human; settings: for Metformin t(1/2) with vs without co-administration of dolutegravir: dolutegravir 50 mg q24h or q12h
[9] = Safety monitoring: drug-related adverse events in healthy subjects; format: in vivo, human; settings: metformin 500 mg q12h alone or with dolutegravir 50 mg q24h or q12h
[10] = co-administration of cimetidine

CN/C(=N/CCSCc1nc[nH]c1C)NC#N [Cimetidine]
Increase in metformin AUC [1, 10]: 40% | Increase in metformin peak concentration [1, 10]: 60%

C[C@@H]1CCO[C@H]2Cn3cc(C(=O)NCc4ccc(F)cc4F)c(=O)c(O)c3C(=O)N12 [Dolutegravir]
Inhibition of [14C]metformin transport by OCT3 [2]: no inhibition | Inhibition of [14C]metformin uptake by PMAT [3]: no inhibition | Dolutegravir free fraction [4]: ≥ 1.1% | Cmax ([4]; read-out: Dolutegravir Cmax, twice daily dosing): 13 µM | Effect on cellular uptake of metformin in the Caco-2 intestinal cell line [5]: unaffected | Inhibition of OCT1 [6]: 22% | IC50 ([7]; read-out: IC50 for OCT2): 1900 nM | IC50 ([7]; read-out: OCT2 inhibitory potency, tetraethylammonium as the substrate): 66 nM

CN(C)C(=N)N=C(N)N [Metformin]
Decrease in metformin CL/F ([8]; co-administration of dolutegravir 50 mg q12h): 59% | Decrease in metformin CL/F ([8]; co-administration of dolutegravir 50 mg q24h): 44% | Metformin t(1/2) with vs without co-administration of dolutegravir [8]: unchanged | Metformin t(1/2) with vs without co-administration of dolutegravir ([8]; listed as metformin): similar | Fraction of drug excreted unchanged in the urine ([1]; within 24 hours, oral and intravenous administration): 90% | Tolerability [9]: well tolerated
